target: T1, TrkA kinase domain (Homo sapiens, UniProt P04629); test: TrkA Kinase Assay (Trk kinase biochemical assay); conditions: 33 pM TrkA, 100 nM peptide substrate, 10 µM ATP; 15 minute preincubation; read-out: TrkA WT IC50
T1 construct: TrkA kinase domain was supplied by SignalChem; purchased SignalChem
Protocol: Example 33: TrkA Kinase Assay Protocol
TrkA kinase domain was supplied by SignalChem. Ulight PolyGT peptide substrate and Europium labeled W1024 antiphosphotyrosine antibody were supplied by Perkin Elmer. Assay buffer contained 50 mM HEPES, 10 mM MgCb, 1 mM EGTA, 2 mM DTT, 0.1 mg/mL BSA, and 0.005% w/v tween 20, pH 7.5. Enzyme dilution buffer was made by supplementing assay buffer with 25% w/v glycerol. Antibody dilution buffer contained 20 mM Tris, 137 mM NaCl, and 0.05% w/v tween 20, pH 8.0. Buffers were prepared at room temperature. Enzyme solutions were made on ice, while other solutions were made at room temperature and all subsequent assay steps were performed at room temperature. The TrkA stock solution (0.1 mg/mL) was diluted 156× in enzyme dilution buffer and then 100× in assay buffer. Five pL/well of enzyme solution was added to the assay plate (Greiner black 384-well nonbinding plate), with buffer containing no enzyme added to negative control wells. Test compounds were serially diluted in DMSO at 300× final assay concentration. One μL of each test compound dilution was mixed with 99 pL assay buffer plus ATP (30 μM) and five pL of each test compound-ATP solution was added to w¾13s containing enzyme. Positive control wells contained enzyme and substrates but no test compounds. After a 15 minute enzyme-test compound preincubation, five pL of substrate diluted in assay buffer was added to all wells. Final assay concentrations were 33 pM TrkA, 100 nM peptide substrate, and […]. After a five minute reaction, five pL of 80 mM EDTA was added, followed five minutes later by five pL two nM antibody solution. The ratio of fluorescence at 665 nm vs. 615 nM in each well was determined using a Tecan Infinite Pro F200 plate reader. For each test compound well, percent inhibition w % s calculated (% inliib. =100-100*(test value-neg. control)/(pos. control-neg. control)). Percent inhibition values were fit to a four parameter logistic to determine ICso values for each test compound.

T1 sequence (P04629 510-781 limits assumed): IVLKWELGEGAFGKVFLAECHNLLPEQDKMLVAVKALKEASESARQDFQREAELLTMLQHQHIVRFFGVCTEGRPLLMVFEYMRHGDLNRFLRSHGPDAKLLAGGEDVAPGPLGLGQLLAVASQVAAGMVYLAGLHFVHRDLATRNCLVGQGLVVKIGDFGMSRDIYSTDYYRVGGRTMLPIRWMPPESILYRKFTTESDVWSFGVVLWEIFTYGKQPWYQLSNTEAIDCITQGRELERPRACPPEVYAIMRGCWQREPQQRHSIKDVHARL

SMILES	IC50 [nM]
COc1cncc(-c2cnn(-c3cnn4ccc(N5CCC[C@@H]5c5ncccc5F)nc34)c2)c1 [I-211]	< 10
Fc1ccc(F)c([C@H]2CCCN2c2ccn3ncc(-n4cc(C5=COCC5)cn4)c3n2)c1 [I-212]	< 10
Fc1cccnc1[C@H]1CCCN1c1ccn2ncc(-n3cc(-c4ccncc4)cn3)c2n1 [I-213]	< 10
Fc1ccc(F)c([C@H]2CCCN2c2ccn3ncc(-n4cc(-c5cncc(OC6COC6)c5)cn4)c3n2)c1 [I-214, (R)-5-(2-(2,5-difluorophenyl)pyrrolidin-1-yl)-3-(4-(5-(oxetan-3-yloxy)pyridin-3-yl)-1H-pyrazol-1-yl)pyrazolo[1,5-a]pyrimidine]	< 10
Fc1cccnc1[C@H]1CCCN1c1ccn2ncc(-n3cc(C(F)(F)F)cn3)c2n1 [I-215]	< 10
COc1ccc(F)c([C@H]2CCCN2c2ccn3ncc(-n4cc(C)cn4)c3n2)n1 [I-216, (R)-5-(2-(3-fluoro-6-methoxypyridin-2-yl)pyrrolidin-1-yl)-3-(4-methyl-1H-pyrazoI-1-yl)pyrazolo[1,5-a]pyrimidine]	< 10
Cc1cnn(-c2cnn3ccc(N4CCC[C@@H]4c4nc(N(C)C)ccc4F)nc23)c1 [I-217, (R)-5-fluoro-N,N-dimethyl-6-(1-(3-(4-methyl-1H-pyrazol-1-yl)pyrazolo[1,5-a]pyrimidin-5-yl)pyrrolidin-2-yl)pyridin-2-amine]	< 10
CNc1ccc(F)c([C@H]2CCCN2c2ccn3ncc(-n4cc(C)cn4)c3n2)n1 [I-218]	< 10
Fc1ccc(F)c([C@H]2CCCN2c2ccn3ncc(-n4cc(-c5ccc(F)nc5)cn4)c3n2)c1 [I-219, (R)-5-(2-(2,5-difluorophenyl)pyrrolidin-1-yl)-3-(4-(6-fluoropyridin-3-yl)-1H-pyrazol-1-yl)pyrazolo[1,5-a]pyrimidine]	< 10
COc1ccc(-c2cnn(-c3cnn4ccc(N[C@H](C)c5cc(F)ccc5F)nc34)c2)cn1 [I-220, (R)—N-(1-(2,5-difluor®phenyl)ethyl)-3-(4-(6-methoxypyridin-3-yl)-1H-pyrazoI-1-yl)pyrazolo[1,5-a]pyrimidin-5-amine]	< 10
COc1ccc(-c2cnn(-c3cnn4ccc(N5CCC[C@@H]5c5nc(F)ccc5F)nc34)c2)cn1 [I-221, (R)-5-(2-(3,6-difluoropyridin-2-yl)pyrrolidin-1-yl)-3-(4-(6-methoxypyridin-3-yl)-1H-pyrazol-1-yl)pyrazolo[1,5-a]pyrimidine]	< 10
COc1ccc(-c2cnn(-c3cnn4ccc(N5CCC[C@@H]5c5ncccc5F)nc34)c2)cn1 [I-222]	< 10
Fc1ccc(F)c([C@H]2CCCN2c2ccn3ncc(-n4cc(-c5ccc(OC6COC6)nc5)cn4)c3n2)c1 [I-223, (R)-5-(2-(2,5-difluorophenyl)pyrrolidn-1-yl)-3-(4-(6-(oxetan-3-yloxy)pyridin-3-yl)-H-pyrazol-1-yl)pyrazolo[1,5-a]pyrimidine]	< 10
CC(=O)c1cnn(-c2cnn3ccc(N4CCC[C@@H]4c4cc(F)ccc4F)nc23)c1 [I-225, (R)-1-(1-(5-(2-(2,5-difluorophenyl)pyrrolidin-1-yl)pyrazolo[1,5-a]pyrimidin-3-yl)-1H-pyrazol-4-yl)ethanone]	< 10
COCc1cnn(-c2cnn3ccc(N4CCC[C@@H]4c4cc(F)ccc4F)nc23)c1 [I-226]	< 10

Other lines, results leading:

IC50 [nM]	SMILES
< 10	Cc1cnn(-c2cnn3ccc(N(C)[C@H](C)c4ccccc4)nc23)c1 [I-195, (R)—N-methyl-3-(4-methyl-1H-pyrazol-1-yl)-N-(1-phenylethyl)pyrazolo[1,5-a]pyrimidin-5-amine]
< 10	Cc1cnn(-c2cnn3ccc(N[C@H](C)c4ccccc4)nc23)c1 [I-196]
< 10	CN(C)C(=O)Nc1cnn(-c2cnn3ccc(N4CCC[C@@H]4c4cc(F)ccc4F)nc23)c1 [I-197]
< 10	CN(C)S(=O)(=O)Nc1cnn(-c2cnn3ccc(N4CCC[C@@H]4c4cc(F)ccc4F)nc23)c1 [I-198, (R)—N-(1-(5-(2-(2,5-difluorophenyl)pyrrolidin-1-yl)pyrazolo[1,5-a]pyrimidin-3-yl)-1H-pyrazol-4-yl)-1,1-dimethylsulfonylurea]
< 10	Fc1ccc(F)c([C@H]2CCCN2c2ccn3ncc(-n4cc(-c5ccnnc5)cn4)c3n2)c1 [I-199]
< 10	COc1ccc(-c2cnn(-c3cnn4ccc(N5CCC[C@@H]5c5cc(F)ccc5F)nc34)c2)cn1 [I-200]
< 10	COc1ccncc1-c1cnn(-c2cnn3ccc(N4CCC[C@@H]4c4cc(F)ccc4F)nc23)c1 [I-201]
< 10	COc1ncccc1-c1cnn(-c2cnn3ccc(N4CCC[C@@H]4c4cc(F)ccc4F)nc23)c1 [I-202]
< 10	NC(=O)c1cnccc1-c1cnn(-c2cnn3ccc(N4CCC[C@@H]4c4cc(F)ccc4F)nc23)c1 [I-203]
< 10	COc1cnccc1-c1cnn(-c2cnn3ccc(N4CCC[C@@H]4c4cc(F)ccc4F)nc23)c1 [I-204]
< 10	Fc1ccc(F)c([C@H]2CCCN2c2ccn3ncc(-n4cc(-c5ccncc5F)cn4)c3n2)c1 [I-205]
< 10	COc1cncc(-c2cnn(-c3cnn4ccc(N5CCC[C@@H]5c5nc(F)ccc5F)nc34)c2)c1 [I-206, (R)-5-(2-(3,6-difluoropyridin-2-yl)pyrrolidin-t-yl)-3-(4-(5-methoxypyridin-3-yi)-1H-pyrazol-1-yl)pyrazolo[1,5-a]pyrimidine]
< 10	Fc1ccc(F)c([C@H]2CCCN2c2ccn3ncc(-n4cc(-c5ccncc5)cn4)c3n2)n1 [I-207]
< 10	OC1CCN(c2cnn(-c3cnn4ccc(N5CCC[C@@H]5c5cc(F)ccc5F)nc34)c2)C1 (stereo partly shown) [I-208]
< 10	OC1CCN(c2cnn(-c3cnn4ccc(N5CCC[C@@H]5c5ncccc5F)nc34)c2)C1 (stereo partly shown) [I-209]
< 10	Fc1ccc(F)c([C@H]2CCCN2c2ccn3ncc(-n4cc(C5CCOC5)cn4)c3n2)c1 (stereo partly shown) [I-210]

— US12486276B2, “5-(2,5-difluorophenyl)pyrrolidin-1-yl)-3-(1H-pyrazol-1-yl)pyrazolo[1,5-a]pyrimidine derivatives and related compounds as Trk kinase inhibitors for treating cancer” (Pyramid Biosciences, Inc., priority 2017, dated 2025)
